Laboratory results as given in patent publication US7214673B2, “Piperazine substituted aryl benzodiazepines and their use as dopamine receptor antagonists for the treatment of psychotic disorders” (Eli Lilly and Company, priority 2002, dated 2007).
Where a name gives a salt, the structure may show the parent alone.

melting point | SMILES
230 °C | Cc1nc2c(s1)Nc1ccccc1N=C2N1CCN[C@@H](CCc2ccccc2)C1 (as salt: hydrochloride) (hydrate or solvate) [Example 460, (S)-2-Methyl-10-(3-phenethyl-piperazin-1-yl)-4H-3-thia-1,4,9-triaza-benzo[f]azulene dihydrochloride hemihydrate]
220 °C | Cc1nc2c(s1)Nc1ccccc1N=C2N1CCN(C)[C@@H](CCc2ccccc2)C1 (as salt: hydrochloride) (hydrate or solvate) [Example 461, (S)-2-Methyl-10-(4-methyl-3-phenethyl-piperazin-1-yl)-4H-3-thia-1,4,9-triaza-benzo[f]azulene dihydrochloride hemihydrate]
210 °C | CC(C)n1nc2c(n1)C(N1CCN[C@@H](CCc3ccccc3)C1)=Nc1ccccc1N2 (as salt: hydrochloride) (hydrate or solvate) [Example 594, (S)-2-Isopropyl-10-(3-phenethyl-piperazin-1-yl)-2,4-dihydro-1,2,3,4.9-pentaaza-benzo[f]azulene dihydrochloride hemihydrate]
200 °C (dec.) | COc1cccc(CC[C@H]2CN(C3=Nc4ccccc4Nc4sc(C)cc43)CCN2C)c1 (as salt: hydrochloride) [Example 186, 10-((S)-3-(2-(3-Methoxy-phenyl)-ethyl)-4-methyl-piperazin-1-yl)-2-methyl-4H-3-thia-4.9-diaza-benzo[f]azulene dihydrochloride]
213 °C (dec.) | COc1ccccc1CC[C@H]1CN(C2=Nc3ccccc3Nc3sc(C)cc32)CCN1C (as salt: hydrochloride) [Example 187, 10-((S)-3-(2-(2-Methoxy-phenyl)-ethyl)-4-methyl-piperazin-1-yl)-2-methyl-4H-3-thia-4,9-diaza-benzo[f]azulene dihydrochloride]
235 °C | CC(C)c1nc2c(s1)Nc1ccccc1N=C2N1CCN(C)[C@@H](Cc2ccccc2)C1 (as salt: hydrochloride) [Example 477, (S)-10-(3-Benzyl-4-methyl-piperazin-1-yl)-2-isopropyl-4H-3-thia-1,4,9-triaza-benzo[f]azulene dihydrochloride]
230 °C | Cc1nc2c(s1)Nc1ccccc1N=C2N1CCN(C)[C@@H](CCc2cccc(F)c2)C1 (as salt: hydrochloride) [Example 479, (S)-10-{3-[2-(3-Fluoro-phenyl)-ethyl]-4-methyl-piperazin-1-yl}-2-methyl-4H-3-thia-1,4,9-triaza-benzo[f]azulene dihydrochloride]
228 °C | CC(C)c1nc2c(s1)Nc1ccccc1N=C2N1CCN(C)[C@@H](CCc2ccc(F)cc2)C1 (as salt: hydrochloride) [Example 481, (S)-10-{3-[2-(4-Fluoro-phenyl)-ethyl]-4-methyl-piperazin-1-yl}-2-isopropyl-4H-3-thia-1,4,9-triaza-benzo[f]azulene dihydrochloride]
68 to 74 °C (dec.) | Cc1cc2c(s1)Nc1ccccc1N=C2N1CCN[C@@H](CCc2cccc(Cl)c2)C1 [Example 387, 10-((S)-3-[2-(3-Chloro-phenyl)-ethyl]-piperazin-1-yl)-2-methyl-4H-3-thia-4,9-diaza-benzo[f]azulene]
91 °C (dec.) | Cc1cc2c(s1)Nc1ccccc1N=C2N1CCN[C@@H](CCc2ccc(Cl)cc2)C1 [Example 388, 10-((S)-3-[2-(4-Chloro-phenyl)-ethyl]-piperazin-1-yl)-2-methyl-4H-3-thia-4,9-diaza-benzo[f]azulene]
72 °C (dec.) | Cc1cc2c(s1)Nc1ccccc1N=C2N1CCN[C@@H](CCc2ccccc2Cl)C1 [Example 389, 10-((S)-3-[2-(2-Chloro-phenyl)-ethyl]-piperazin-l-yl)-2-methyl-4H-3-thia-4,9-diaza-benzo[f]azulene]
79 °C (dec.) | Cc1cc2c(s1)Nc1ccccc1N=C2N1CCN(C)[C@@H](CCc2ccc(Cl)cc2)C1 [Example 390, 10-((S)-3-[2-(4-Chloro-phenyl)-ethyl]-4-methyl-piperazin-1-yl)-2-methyl-4H-3-thia-4,9-diaza-benzo[f]azulene]

More lines, now with the values behind:

SMILES | melting point
Cc1cc2c(s1)Nc1ccccc1N=C2N1CCN(C)[C@@H](CCc2ccoc2)C1.Cl.Cl | 198 °C (dec.)
Cc1cc2c(s1)Nc1ccccc1N=C2N1CCN(C)[C@@H](CCc2ccccc2)C1.Cl | 225 °C
Cc1cc2c(s1)Nc1ccccc1N=C2N1CCN(C)[C@@H](CCc2ccc3ccccc3c2)C1 (as salt: hydrochloride) | 209 °C (dec.)
CN1CCN(C2=Nc3ccccc3Nc3sc(C(C)(C)C)cc32)C[C@@H]1CCc1ccccc1 (as salt: hydrochloride) | 230 °C
Cc1nc2c(s1)Nc1ccccc1N=C2N1CCN(C)[C@@H](Cc2ccccc2)C1 (as salt: hydrochloride) | 240 °C
COc1ccccc1C[C@H]1CN(C2=Nc3ccccc3Nc3sc(C)nc32)CCN1C (as salt: hydrochloride) | 185 °C
CC(C)c1nc2c(s1)Nc1ccccc1N=C2N1CCN(C)[C@@H](CCc2ccccc2)C1 (as salt: hydrochloride) | 210 °C
COc1ccc(CC[C@H]2CN(C3=Nc4ccccc4Nc4sc(C(C)C)nc43)CCN2C)cc1 (as salt: hydrochloride) | 190 °C
Cc1nc2c(s1)Nc1ccccc1N=C2N1CCN(C)[C@@H](CCc2ccc(F)cc2)C1 (as salt: hydrochloride) | 230 °C
CC(C)c1nc2c(s1)Nc1ccccc1N=C2N1CCN(C)[C@@H](CCc2cccc(F)c2)C1 (as salt: hydrochloride) | 180 °C
CC(C)c1ccc2c(c1)C(N1CCN(C)[C@@H](CCc3cccc(F)c3)C1)=Nc1ccccc1N2 (as salt: hydrochloride) | 227 °C
Cc1cc2c(s1)Nc1ccccc1N=C2N1CCN(C)[C@@H](CCc2ccncc2)C1 (as salt: hydrochloride) (hydrate or solvate) | 214 to 217 °C (dec.)
Cc1cc2c(s1)Nc1ccccc1N=C2N1CCN[C@@H](CCc2cccnc2)C1 (as salt: hydrochloride) (hydrate or solvate) | 226 to 229 °C (dec.)
Cc1cc2c(s1)Nc1ccccc1N=C2N1CCN[C@@H](CCc2ccccn2)C1 (as salt: hydrochloride) [Example 132] | 220 to 224 °C (dec.)
Cc1cc2c(s1)Nc1ccccc1N=C2N1CCN[C@@H](CCc2ccc(F)cc2)C1 (as salt: hydrochloride) [Example 176, 10-((S)-3-(2-(4-Fluorophenyl)-ethyl)-piperazin-1-yl)-2-methyl-4H-3-thia-4,9-diaza-benzo[f]azulene dihydrochloride] | 236 °C (dec.)
Cc1cc2c(s1)Nc1ccccc1N=C2N1CCN[C@@H](CCc2cccc(F)c2)C1 (as salt: hydrochloride) [Example 177, 10-((S)-3-(2-(3-Fluoro-phenyl)-ethyl)-piperazin-1-yl))-2-methyl-4H-3-thia-4,9-diaza-benzo[f]azulene dihydrochloride] | 211 °C (dec.)
Cc1cc2c(s1)Nc1ccccc1N=C2N1CCN[C@@H](CCc2ccccc2F)C1 (as salt: hydrochloride) [Example 178, 10-((S)-3-(2-(2-Fluoro-phenyl)-ethyl)-piperazin-1-yl)-2-methyl-4H-3-thia-4,9-diaza-benzo[f]azulene dihydrochloride] | 209 °C (dec.)
COc1ccc(CC[C@H]2CN(C3=Nc4ccccc4Nc4sc(C)cc43)CCN2)cc1 (as salt: hydrochloride) [Example 179, 10-((S)-3-(2-(4-methoxy-phenyl)-ethyl)-piperazin-1-yl)-2-methyl-4H-3-thia-4,9-diaza-benzo[f]azulene dihydrochloride] | 213 °C (dec.)
COc1cccc(CC[C@H]2CN(C3=Nc4ccccc4Nc4sc(C)cc43)CCN2)c1 (as salt: hydrochloride) [Example 180, 10-((S)-3-(2-(3-Methoxy-phenyl)-ethyl)-piperazin-1-yl)-2-methyl-4H-3-thia-4,9-diaza-benzo[f]azulene dihydrochloride] | 201 °C (dec.)
COc1ccccc1CC[C@H]1CN(C2=Nc3ccccc3Nc3sc(C)cc32)CCN1 (as salt: hydrochloride) [Example 181, 10-((S)-3-(2-(2-Methoxy-phenyl)-ethyl)-piperazin-1-yl)-2-methyl-4H-3-thia-4,9-diaza-benzo[f]azulene dihydrochloride] | 202 °C (dec.)
Cc1cc2c(s1)Nc1ccccc1N=C2N1CCN(C)[C@@H](CCc2ccc(F)cc2)C1 (as salt: hydrochloride) [Example 182, 10-((S)-3-(2-(4-Fluoro-phenyl)-ethyl]-4-methyl-piperazin-1-yl)-2-methyl-4H-3-thia-4,9-diaza-benzo[f]azulene dihydrochloride] | 253 °C (dec.)
Cc1cc2c(s1)Nc1ccccc1N=C2N1CCN(C)[C@@H](CCc2cccc(F)c2)C1 (as salt: hydrochloride) [Example 183, 10-((S)-3-(2-(3-Fluoro-phenyl)-ethyl)-4-methyl-piperazin-1-yl)-2-methyl-4H-3-thia-4,9-diaza-benzo[f]azulene dihydrochloride] | 225 °C (dec.)
Cc1cc2c(s1)Nc1ccccc1N=C2N1CCN(C)[C@@H](CCc2ccccc2F)C1 (as salt: hydrochloride) [Example 184, 10-((S)-3-(2-(2-Fluoro-phenyl)-ethyl)-4-methyl-piperazin-1-yl)-2-methyl-4H-3-thia-4,9-diaza-benzo[f]azulene dihydrochloride] | 203 °C (dec.)
COc1ccc(CC[C@H]2CN(C3=Nc4ccccc4Nc4sc(C)cc43)CCN2C)cc1 (as salt: hydrochloride) [Example 185, 10-((S)-3-(2-(4-Methoxy-phenyl)-ethyl)-4-methyl-piperazin-1-yl)-2-methyl-4H-3-thia-4,9-diaza-benzo[f]azulene dihydrochloride] | 239 °C (dec.)
COc1ccc(CC[C@H]2CN(C3=Nc4cc(F)ccc4Nc4sc(C)cc43)CCN2C)cc1.Cl (stereo in doubt) | 180 to 182 °C
